{"source": "paper PMC9950431", "about": "“A bivalent remipede toxin promotes calcium release via ryanodine receptor activation” (Nature Communications, 2023)", "format_in_all_cases": "cell-based, human", "key": {"[1]": {"tested_on": "SH-SY5Y neuroblastoma cells", "assay": "FLIPR intracellular Ca2+ assay, SH-SY5Y cells (direct response)", "details": "Xt3a 3 µM", "description": "(§1) SH-SY5Y human neuroblastoma cells (European Collection of Authenticated Cell Culture, Sigma Aldrich, 94030304-1VL) were cultured in RPMI media (ThermoFisher Scientific, Scoresby, Australia) supplemented with 15% foetal bovine serum and L-glutamine (1 mM) and passaged at approximately 80% confluency with TrypLE Express (Thermo Fisher, Australia). For fluorescence imaging, cells were plated on CellBIND (Corning) 384-well black-walled imaging plates at a density of 20,000–30,000 cells/well in complete media and cultured for 48 h at 37 °C/5% CO2.\nBriefly, SH-SY5Y cells were loaded with Calcium 4 no-wash dye (Molecular Devices) diluted in physiological salt solution (composition in mM: NaCl 140, D-glucose 11.5, KCl 5.9, MgCl2 1.4, NaH2PO4 1.2, NaHCO3 5, CaCl2 1.8, HEPES 10) for 30 min at 37 °C. A two-addition FLIPR^Tetra (Molecular Devices) protocol using the following settings was used to measure fluorescence responses: excitation 470–495 nm; emission 515–575 nm; excitation intensity 80%; excitation duration 0.8 s; gain 140; read interval 1/s; read number 300/addition. […] Raw fluorescence readings were converted to response over baseline using the analysis tool Screenworks 3.1.1.4 (Molecular Devices) and were expressed relative to the maximum increase in fluorescence of control responses and plotted using GraphPad Prism 9.3.1."}, "[2]": {"tested_on": "α3β2/α3β4 nAChR (α3-containing nAChR)", "assay": "FLIPR Ca2+ assay, inhibition of endogenous α3-containing nAChR", "details": "for Ca2+ response relative to control response: 3 µM Xt3a pre-treatment, nicotine 30 μM, over 300 s", "description": "as §1\n(§2) Briefly, SH-SY5Y cells were loaded with Calcium 4 no-wash dye (Molecular Devices) diluted in physiological salt solution (composition in mM: NaCl 140, D-glucose 11.5, KCl 5.9, MgCl2 1.4, NaH2PO4 1.2, NaHCO3 5, CaCl2 1.8, HEPES 10) for 30 min at 37 °C. A two-addition FLIPR^Tetra (Molecular Devices) protocol using the following settings was used to measure fluorescence responses: excitation 470–495 nm; emission 515–575 nm; excitation intensity 80%; excitation duration 0.8 s; gain 140; read interval 1/s; read number 300/addition. Responses mediated via endogenously expressed ion channels were elicited by addition of: choline (30 μM)/PNU-120596 (10 μM) for α7 nAChR-mediated responses; nicotine (30 μM) for α3β2/α3β4 nAChR-mediated responses; KCl (90 mM)/CaCl2 (5 mM) for CaV1.3-mediated responses; KCl (90 mM)/CaCl2 (5 mM) + nifedipine (10 μM) for CaV2.2-mediated responses; vertridine (70 μM) for NaV1.2-mediated responses; and veratridine (4 μM)/OD1 (300 nM) for NaV1.7-mediated responses. Raw fluorescence readings were converted to response over baseline using the analysis tool Screenworks 3.1.1.4 (Molecular Devices) and were expressed relative to the maximum increase in fluorescence of control responses and plotted using GraphPad Prism 9.3.1.\n(§3) In the cell-based FLIPR assays statistical analysis was performed using GraphPad Prism 9.3.1. Statistical significance was defined as p < 0.05, and determined by one-sample t-test assessing difference to the control value of 100%. In α7 nAChR, α3-containing nAChR, CaV1.3, CaV2.2, NaV1.2 and NaV1.7 channels (Supplementary Fig. 5B), with distribution (t) and degrees of freedom (df) being: t = 0.9683, df = 2 (α7); t = 1.338, df = 2 (α3); t = 1.775, df = 2 (NaV1.2); t = 1.478"}, "NaV1.2": {"tested_on": "NaV1.2", "assay": "FLIPR Ca2+ assay, inhibition of endogenous NaV1.2", "details": "for Ca2+ response relative to control response: 3 µM Xt3a pre-treatment, veratridine 70 μM, over 300 s", "description": "as §1, §2, §3"}, "NaV1.7": {"tested_on": "NaV1.7", "assay": "FLIPR Ca2+ assay, inhibition of endogenous NaV1.7", "details": "for Ca2+ response relative to control response: 3 µM Xt3a pre-treatment, veratridine 4 μM/OD1 300 nM, over 300 s", "description": "as §1, §2, §3"}}, "note": "“Also recorded” adds a separate entry of the source.", "data": [{"substance": "φ-Xibalbin3-Xt3a", "values": [{"measurement": "increase in intracellular Ca2+", "setting": "[1]", "result": "did not elicit an increase in intracellular Ca^2+; also recorded: does not elicit an increase in intracellular Ca2+ responses"}, {"measurement": "Ca2+ response relative to control response", "setting": "[2]; replicate 1", "result": 102.763, "unit": "%"}, {"measurement": "Ca2+ response relative to control response", "setting": "[2]; replicate 2", "result": 100.13, "unit": "%"}, {"measurement": "Ca2+ response relative to control response", "setting": "[2]; replicate 3", "result": 100.441, "unit": "%"}, {"measurement": "inhibition of Ca2+ responses", "setting": "[2]; Xt3a 3 µM", "result": "did not inhibit Ca^2+ responses"}, {"measurement": "Ca2+ response relative to control response", "setting": "NaV1.2; replicate 1", "result": 91.9349, "unit": "%"}, {"measurement": "Ca2+ response relative to control response", "setting": "NaV1.2; replicate 2", "result": 100.571, "unit": "%"}, {"measurement": "Ca2+ response relative to control response", "setting": "NaV1.2; replicate 3", "result": 88.9832, "unit": "%"}, {"measurement": "inhibition of Ca2+ responses", "setting": "NaV1.2; Xt3a 3 µM", "result": "did not inhibit Ca^2+ responses"}, {"measurement": "Ca2+ response relative to control response", "setting": "NaV1.7; replicate 1", "result": 99.4493, "unit": "%"}, {"measurement": "Ca2+ response relative to control response", "setting": "NaV1.7; replicate 2", "result": 100.583, "unit": "%"}, {"measurement": "Ca2+ response relative to control response", "setting": "NaV1.7; replicate 3", "result": 102.164, "unit": "%"}, {"measurement": "inhibition of Ca2+ responses", "setting": "NaV1.7; Xt3a 3 µM", "result": "did not inhibit Ca^2+ responses"}]}]}
